Laboratory results published in patent US20260130933A1, “PHARMACEUTICAL COMPOSITION FOR PREVENTION OR TREATMENT OF NEPHROPATHY AND/OR DIABETES MELLITUS, COMPRISING ENAVOGLIFLOZIN” (DAEWOONG PHARMACEUTICAL CO., LTD., priority 2022, published 2026).

Assay: Example 2: phase 3 trial, enavogliflozin 0.3 mg vs dapagliflozin 10 mg once a day for 24 weeks added to metformin in patients with type 2 diabetes (same efficacy, exploratory and safety endpoints)
Type: in vivo, human
Experimental: Subjects who met the inclusion/exclusion criteria were administered a placebo of the clinical trial drug under single-blind (subject blinding) conditions during a 2-week run-in period while continuing to receive metformin. […] The randomized subjects were administered two tablets of the clinical trial drug for each administration group once a day, and then visited the institution at weeks 6, 12, 18, and 24 during the 24-week administration period to conduct efficacy and safety evaluations.
• 1. Change in HbA1c at week 24 after administration of clinical trial drug compared to Visit 2 (randomization)
• 1. Change in HbA1c at each time point of weeks 6, 12, and 18 after administration of clinical trial drug compared to Visit 2 (randomization) • 2. Change in FPG at each time point of weeks 6, 12, 18, and 24 after administration of clinical trial drug compared to Visit 2 (randomization) • 3. Proportion of subjects achieving HbA1c<7% at each time point of weeks 6, 12, 18, and 24 after administration of clinical trial drug • 4. Proportion of subjects achieving HbA1c<6.5% at each time point of weeks 6, 12, 18, and 24 after administration of clinical trial drug • 5. Proportion of subjects achieving therapeutic response (HbA1c change (HbA1c at Visit 2-HbA1c at each evaluation time point)>0.5% or HbA1c<7% at each evaluation time point compared to Visit 2 (randomization)) at each time point of weeks 6, 12, 18 and 24 after administration of clinical trial drug
• 1. Change in fasting c-peptide at each time point of weeks 6, 12, 18, and 24 after administration of clinical trial drug compared to Visit 2 (randomization) • 2. Change in body weight at each time point of weeks 6, 12, 18, and 24 after administration of clinical trial drug compared to Visit 2 (randomization) • 3. Change in fasting lipid concentration (total cholesterol, LDL-C, HDL-C, and triglycerides) at each time point of weeks 6, 12, 18, and 24 after administration of clinical trial drug compared to Visit 2 (randomization) • 4. Changes in systolic or diastolic blood pressure at each time point of weeks 6, 12, 18, and 24 after administration of clinical trial drug compared to Visit 2 (randomization) • 5. Changes in β-cell function and insulin resistance measured by HOMA-β and HOMA-IR at each time point of weeks 6, 12, 18, and 24 after administration of clinical trial drug compared to Visit 2 (randomization) • 6. Changes in renal function-related indicators (UACR, UGCR) measured by UACR at each time point of weeks 6, 12, 18, and 24 after administration of clinical trial drug compared to Visit 2 (randomization) • 7. Changes in obesity-related indicators (adiponectin, leptin) at each time point of weeks 6, 12, 18, and 24 after administration of clinical trial drug compared to Visit 2 (randomization)

[1] = Week 18, mPPS1, enavogliflozin minus dapagliflozin
[2] = Week 18, mPPS2, enavogliflozin minus dapagliflozin
[3] = Week 24, PPS, enavogliflozin minus dapagliflozin

OC[C@H]1O[C@@H](c2cc(Cc3ccc(C4CC4)cc3)c(Cl)c3c2CCO3)[C@H](O)[C@@H](O)[C@@H]1O [Enavogliflozin, (2S,3R,4R,5S,6R)-2-(7-chloro-6 (4-cyclopropylbenzyl)-2,3-dihydrobenzofuran-4-yl)-6-(hydroxymethyl)tetrahydro-2H-pyran-3,4,5-triol]
LDL-C, Mean (SD) (Week 18, mPPS1): 85.75(29.78) mg/dL
LDL-C, Median (Week 18, mPPS1): 77.50 mg/dL
Triglycerides change from baseline, ANCOVA LS mean (SE) (Week 18, mPPS1): −4.99(5.99) mg/dL
Triglycerides change from baseline, Mean (SD) (Week 18, mPPS1): −2.70(78.86) mg/dL
Triglycerides change from baseline, Median (Week 18, mPPS1): -2.50 mg/dL
Triglycerides, Mean (SD) (Week 18, mPPS1): 118.10(55.93) mg/dL
Triglycerides, Median (Week 18, mPPS1): 108.00 mg/dL
HDL-C change from baseline, LS mean difference [1]: -0.62 mg/dL
LDL-C change from baseline, LS mean difference [1]: -1.15 mg/dL
triglycerides change from baseline, LS mean difference [1]: -6.87 mg/dL
Diastolic blood pressure change from baseline, ANCOVA LS mean (SE) (Week 18, mPPS2): −4.80 mmHg
Diastolic blood pressure change from baseline, Mean (SD) (Week 18, mPPS2): −5.05 mmHg
Diastolic blood pressure change from baseline, Median (Week 18, mPPS2): −5.00 mmHg
Diastolic blood pressure, Mean (SD) (Week 18, mPPS2): 71.85 mmHg
Diastolic blood pressure, Median (Week 18, mPPS2): 71.00 mmHg
Systolic blood pressure change from baseline, ANCOVA LS mean (SE) (Week 18, mPPS2): −6.69(1.12) mmHg
Systolic blood pressure change from baseline, Mean (SD) (Week 18, mPPS2): −7.04(10.51) mmHg
Systolic blood pressure change from baseline, Median (Week 18, mPPS2): −9.00 mmHg
Systolic blood pressure, Mean (SD) (Week 18, mPPS2): 122.70(12.89) mmHg
Systolic blood pressure, Median (Week 18, mPPS2): 122.00 mmHg
diastolic blood pressure change from baseline, LS mean difference [2]: −0.70 mmHg
systolic blood pressure change from baseline, LS mean difference [2]: −0.72 mmHg
Adiponectin change from baseline, ANCOVA LS mean (SE) (Week 24, PPS): 1.67 µg/mL
Adiponectin change from baseline, Mean (SD) (Week 24, PPS): 1.72 µg/mL
Adiponectin change from baseline, Median (Week 24, PPS): 1.21 µg/mL
Adiponectin, Mean (SD) (Week 24, PPS): 8.68 µg/mL
Adiponectin, Median (Week 24, PPS): 7.64 µg/mL
HOMA-IR change from baseline, ANCOVA LS mean (SE) (Week 24, PPS): −1.85
HOMA-IR change from baseline, Mean (SD) (Week 24, PPS): −1.69
HOMA-IR change from baseline, Median (Week 24, PPS): −1.06
HOMA-IR, Mean (SD) (Week 24, PPS): 1.76
HOMA-IR, Median (Week 24, PPS): 1.48
HOMA-β change from baseline, ANCOVA LS mean (SE) (Week 24, PPS): 6.94
HOMA-β change from baseline, Mean (SD) (Week 24, PPS): 6.80
HOMA-β change from baseline, Median (Week 24, PPS): 4.00
HOMA-β, Mean (SD) (Week 24, PPS): 52.32
HOMA-β, Median (Week 24, PPS): 42.00
Leptin change from baseline, ANCOVA LS mean (SE) (Week 24, PPS): -2.40 ng/mL
Leptin change from baseline, Mean (SD) (Week 24, PPS): -2.53 ng/mL
Leptin change from baseline, Median (Week 24, PPS): -1.77 ng/mL
Leptin, Mean (SD) (Week 24, PPS): 9.68 ng/mL
Leptin, Median (Week 24, PPS): 7.45 ng/mL
UACR change from baseline, ANCOVA LS mean (SE) (Week 24, PPS): -24.29 g/kg
UACR change from baseline, Mean (SD) (Week 24, PPS): -18270 mg/kg
UACR change from baseline, Median (Week 24, PPS): -1.10 g/kg
UACR, Mean (SD) (Week 24, PPS): 19930 mg/kg
UACR, Median (Week 24, PPS): 10.20 g/kg
UGCR change from baseline, ANCOVA LS mean (SE) (Week 24, PPS): 60.48 mg/mg
UGCR change from baseline, Mean (SD) (Week 24, PPS): 58.90 mg/mg
UGCR change from baseline, Median (Week 24, PPS): 56.43 mg/mg
UGCR, Mean (SD) (Week 24, PPS): 60.43 mg/mg
UGCR, Median (Week 24, PPS): 57.88 mg/mg
HOMA-IR change from baseline, LS mean difference [3]: −0.53
HOMA-β change from baseline, LS mean difference [3]: −4.99
UACR change from baseline, LS mean difference [3]: -6.93 g/kg
UGCR change from baseline, LS mean difference [3]: 15.54 mg/mg
leptin change from baseline, LS mean difference [3]: -1.12 ng/mL
HDL-C change from baseline, ANCOVA LS mean (SE) (Week 24, mPPS1): 3.06(0.64) mg/dL
HDL-C change from baseline, Mean (SD) (Week 24, mPPS1): 2.75(6.70) mg/dL
HDL-C change from baseline, Median (Week 24, mPPS1): 3.00 mg/dL
HDL-C, Mean (SD) (Week 24, mPPS1): 53.69(10.72) mg/dL
HDL-C, Median (Week 24, mPPS1): 53.00 mg/dL
LDL-C change from baseline, ANCOVA LS mean (SE) (Week 24, mPPS1): 1.64(1.92) mg/dL
LDL-C change from baseline, Mean (SD) (Week 24, mPPS1): 0.88(17.04) mg/dL
LDL-C change from baseline, Median (Week 24, mPPS1): 3.00 mg/dL
LDL-C, Mean (SD) (Week 24, mPPS1): 87.40(29.52) mg/dL
LDL-C, Median (Week 24, mPPS1): 84.00 mg/dL
Triglycerides change from baseline, ANCOVA LS mean (SE) (Week 24, mPPS1): −5.07(5.14) mg/dL
Triglycerides change from baseline, Mean (SD) (Week 24, mPPS1): −2.47(76.88) mg/dL
Triglycerides change from baseline, Median (Week 24, mPPS1): 0.00 mg/dL
